From US20040167092A1, “Medicaments” (priority 2001, published 2004)

Legend:
Type in all cases: in vivo
radiation-induced emesis = assay: Radiation-induced (X-irradiation) emesis in the conscious ferret; details: for anti-emetic effect with DPCPX, animals affected (in words): two animals; for effect on radiation-induced emesis (in words): s.c. immediately after X-irradiation, conscious ferret
Description: The effects of a number of A1 agonists (including N-(3-fluoro4-hydroxy-phenyl)-5′-O-methyl-adenosine and N-(4-hydroxy-phenyl)-5′-O-methyl-adenosine) and an antagonist, 1,3-dipropyl-8-cyclopentylxanthine (DPCPX), were investigated for anti-emetic action against radiaton-induced emesis in the conscious ferret. In addition DPCPX was used in an attempt to block the anti- emetic effects of the partial agonist, N-(3-fluoro-4hydroxy-phenyl)-5′-O-methyl-adenosine, the structure of which is indicated below. [drawing 4]
For all the experiments. adult male ferrets, body weight range 1-1.5 kg, were used. Emesis was induced by X-irradiation, morphine and cisplatin.
The ferrets were weighed on the day before the experiment. On the day of the experiment each ferret received 2Gy (200 Rad) whole body X-irradiation, administered over a 5 minute period. The A1 receptor agonists, partial agonists or antagonist were administered via the subcutaneous route immediatelv after X-irradiation (i.e. approximately 25 minutes before the onset of emesis). When investigating the effects of the A1 receptor antagonist, DPCPX, on the partial agonist N-(3-fluoro4-hydroxy-phenyl)-5′-O-methyl-adenosine, either both compounds were administered simultaneously immediately after X-irradiation, or the DPCPX was given as a 15 minute pre-treatment.

cisplatin-induced emesis = assay: Cisplatin-induced emesis in the conscious ferret; details: cisplatin 200 mg m-2 i.p., 1 mg kg-1 s.c. after first emetic episode, n=2
Procedure: For all the experiments. adult male ferrets, body weight range 1-1.5 kg, were used. Emesis was induced by X-irradiation, morphine and cisplatin. The ferrets were weighted and measured for the calculation of body surface area on the day before the experiment. On the day of the experiment each ferret received an intraperitoneal dose of cisplatin (200 mg m^−2).

morphine-induced emesis = assay: Morphine-induced emesis in the conscious ferret; details: morphine 0.5 mg kg-1 s.c., 1 mg kg-1 s.c. 15 minutes before morphine, n=2

Compound	% inhibition of retching (radiation-induced emesis; 2Gy whole body X-irradiation, 1.0 mg kg-1 s.c. immediately after irradiation, observed 2 hours, n=2) [%]	anti-emetic effect with DPCPX, animals affected (in words) (radiation-induced emesis; DPCPX 3 mg kg-1 s.c., 15 minute pre-treatment)	anti-emetic effect with DPCPX, animals affected (in words) (radiation-induced emesis; DPCPX 1 mgkg-1 s.c. administered simultaneously)	reversal of the anti-emetic effect by the A1 receptor antagonist DPCPX (in words) (radiation-induced emesis; X-irradiation, addition of DPCPX)	effect on radiation-induced emesis (in words) (radiation-induced emesis)	% inhibition of retching (cisplatin-induced emesis; 1h) [%]	% inhibition of retching (cisplatin-induced emesis; 2h) [%]	% inhibition of retching (cisplatin-induced emesis; 7h) [%]	% inhibition of retching (morphine-induced emesis; 1h) [%]	% inhibition of retching (morphine-induced emesis; 2h) [%]
COC[C@H]1O[C@@H](n2cnc3c(Nc4ccc(O)c(F)c4)ncnc32)[C@H](O)[C@@H]1O [N-(3-fluoro-4-hydroxyphenyl)-5′-O-methyl-adenosine]	100	anti-emetic effect in both animals was reduced	anti-emetic effect in only one of the two animals tested was reduced	partially reversed	completely inhibited emesis	100	67	43	100	100
COC[C@H]1O[C@@H](n2cnc3c(Nc4ccc(O)cc4)ncnc32)[C@H](O)[C@@H]1O [N-(4-hydroxyphenyl)-5′-O-methyl-adenosine]					completely inhibited emesis					
